Laboratory results: patent US12083105B2, “Compositions and methods for treating adult-onset neuronal ceroid lipofuscinosis (Kufs disease)” (CORNELL UNIVERSITY, priority 2020, dated 2024)

Test system: synaptic SNARE-complex
Assay: SNARE-complex assembly in primary neurons (Syb-2 immunoprecipitation, co-IP of Synt-1 and SNAP-25)
Type: cell-based, mice
Settings: CSPα^L115R and CSPα^L116Δ expressing neurons; 200 μM, 72 h; compared to vehicle only; FIG. 3E
From the text: For the experiments shown in FIGS. 3A-3E, primary cortical neurons from neonatal CSPα^−/− mice were infected with lentiviruses expressing Myc-tagged CSPα^WT, CSPα^L115R, CSPα^L116Δ, SSPα, or empty lentivirus (Control) on 7 days in vitro (DIV) and examined on 17 DIV. […] The lentivirus infected cells were stained using antibodies against Myc (green), somatodendritic marker MAP2 (red), and counterstained with nuclear stain DAPI (blue). […] Immunoprecipitation (IP) for SNAP-25 was followed by quantitative immunoblotting of the co-immunoprecipitated (co-IP'd) CSPα (top blot), and normalized to the IP'd SNAP-25 (bottom blot). IP: Control=sham IP without IgG. Palm=palmitoylated. […] N.D.=not detected. […] Immunoprecipitation using anti-synaptobrevin-2 (Syb-2) antibody was followed by quantitative immunoblotting of co-IP'd SNARE-complex partners syntaxin-1 (Synt-1) and SNAP-25. […] Cell extracts were separated by SDS-PAGE, and subjected to quantitative immunoblotting using anti-SNAP-25 antibody and β-actin for normalization. To measure palmitoylation, oligomers were disrupted by lysing neurons in 0.1 N HCl plus 0.1% Triton X-100 for 20 min at 4° C., followed by SDS-PAGE and quantitative immunoblotting against CSPα. […] FIG. 3D (right panel) show quantitation of oligomers, palmitoylated CSPα, respectively, in corresponding lane and expressed as a percentage of total. […]

SMILES | level of co-immunoprecipitated Synt-1 and SNAP-25 (SNARE-complex assembly)
CC(=O)N(O)CCCCCNC(=O)CCC(=O)N(O)CCCCCNC(=O)CCC(=O)N(O)CCCCCN [Dfx, N′-[5-(Acetyl-hydroxy-amino)pentyl]-N-[5-[3-(5-aminopentyl-hydroxy-carbamoyl)propanoylamino]pentyl]-N-hydroxy-butane diamide] | increased level
Cc1c(O)c(=O)ccn1C [L1, 3-hydroxy-1,2-dimethyl-4(1H)-pyridone] | increased level
